# The source made the active and inactive calls.
# Experiments:
# [1] = HEK-293T viability loss after treatment – luminescence, T-cell screen hits, cytotoxicity control for TCR NF-kB inhibitor project, dose response (AID 489026); format: functional, cell-based;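 further: cells exposed to compound about 14 hours before the viability readout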
# [2] = HPDE-C7 pancreatic duct cell viability loss – fluorescence, HTS (AID 430); format: functional, cell-based; conditions: Homo sapiens
# [3] = luciferase reporter signal suppression in cells – H4 neuroglioma cells, luminescence, dose response (AID 1990); format: functional, cell-based
# [4] = viability loss of HPDE-C7K cells – cell-based, fluorescence, HTS, primary screen (AID 431); format: functional; conditions: Homo sapiens
# [5] = alpha-synuclein stem-loop luciferase translation blockers – H4 neuroglioma cells, luminescence, confirmation (AID 1988); format: functional, cell-based
# [6] = Luminescence Cell-Based Dose Response HTS to Identify Inhibitors of 5'UTR Stem-Loop Driven Prion Protein mRNA Translation in H4 Neuroglioblastoma Cells. [Related pubchem assays: 1827 (Project Summary), 1813 (Primary HTS)]; format: functional
# Aminopeptidase N = target: T1, Aminopeptidase N (Plasmodium falciparum FcB1/Columbia, UniProt O96935); test: malaria alanyl aminopeptidase activity blockers – biochemical, fluorogenic H-Leu-NHMec substrate, 1536-well (AID 1445); parameters: species or system Plasmodium falciparum 3D7, 3D7
# T1 sequence (O96935 whole entry): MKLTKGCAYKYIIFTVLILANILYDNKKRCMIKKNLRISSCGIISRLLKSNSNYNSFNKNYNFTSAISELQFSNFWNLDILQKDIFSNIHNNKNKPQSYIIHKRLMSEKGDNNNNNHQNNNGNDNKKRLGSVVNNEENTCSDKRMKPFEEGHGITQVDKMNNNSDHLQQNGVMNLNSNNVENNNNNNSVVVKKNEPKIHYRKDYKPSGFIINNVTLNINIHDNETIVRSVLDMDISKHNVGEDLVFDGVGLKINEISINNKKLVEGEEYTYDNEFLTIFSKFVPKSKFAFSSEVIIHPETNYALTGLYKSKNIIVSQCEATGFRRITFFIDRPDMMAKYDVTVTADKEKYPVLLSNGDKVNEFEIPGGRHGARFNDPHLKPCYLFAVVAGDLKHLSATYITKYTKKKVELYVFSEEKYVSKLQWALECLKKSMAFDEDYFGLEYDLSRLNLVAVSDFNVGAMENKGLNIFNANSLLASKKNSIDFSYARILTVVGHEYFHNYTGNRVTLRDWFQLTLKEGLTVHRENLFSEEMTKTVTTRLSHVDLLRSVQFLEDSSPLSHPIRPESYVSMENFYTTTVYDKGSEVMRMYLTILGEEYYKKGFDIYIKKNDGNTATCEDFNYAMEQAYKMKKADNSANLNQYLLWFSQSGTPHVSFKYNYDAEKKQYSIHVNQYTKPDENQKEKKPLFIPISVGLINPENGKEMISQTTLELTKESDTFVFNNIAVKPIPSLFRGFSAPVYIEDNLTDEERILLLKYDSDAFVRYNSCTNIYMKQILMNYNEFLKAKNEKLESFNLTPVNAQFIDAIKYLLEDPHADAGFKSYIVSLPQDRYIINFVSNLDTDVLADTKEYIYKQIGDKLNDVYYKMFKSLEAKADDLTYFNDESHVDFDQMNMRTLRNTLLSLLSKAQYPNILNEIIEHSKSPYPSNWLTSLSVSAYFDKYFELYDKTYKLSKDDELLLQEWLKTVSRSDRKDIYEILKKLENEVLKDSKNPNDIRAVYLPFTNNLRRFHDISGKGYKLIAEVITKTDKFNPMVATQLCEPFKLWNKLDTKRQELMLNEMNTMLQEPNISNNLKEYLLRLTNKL
# [7] = Luminescence Cell-Based Dose Confirmation HTS to Identify Inhibitors of Platelet Dense Granule Release. [Related pubchem assays: 1663 (Primary HTS), 1678 (Summary of Project)]; format: functional
# [8] = target: Luciferin 4-monooxygenase (Photinus pyralis, UniProt P08659); test: inhibition of purified Photinus pyralis luciferase – biochemical, luminescence, dose response (AID 1891)
# [9] = target: DNA dC->dU-editing enzyme APOBEC-3A (Homo sapiens, UniProt P31941); test: Dose Response confirmation of small molecule APOBEC3A DNA Deaminase Inhibitors via a fluorescence-based single-stranded DNA deaminase assay. [Related pubchem assays (depositor defined):AID493011, AID493024]; format: functional
# Sequence of DNA dC->dU-editing enzyme APOBEC-3A (P31941 whole entry): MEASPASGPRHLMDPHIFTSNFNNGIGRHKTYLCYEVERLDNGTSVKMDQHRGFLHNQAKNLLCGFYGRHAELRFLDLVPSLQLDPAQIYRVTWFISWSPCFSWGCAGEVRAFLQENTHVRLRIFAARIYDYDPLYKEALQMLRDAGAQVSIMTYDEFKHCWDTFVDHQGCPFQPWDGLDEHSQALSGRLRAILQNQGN
# [10] = target: DNA dC->dU-editing enzyme APOBEC-3G (Homo sapiens, UniProt Q9HC16); format: functional;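 further: Dose-response counterscreen measuring inhibition of APOBEC3G DNA deaminase activity, run while confirming APOBEC3A inhibitors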
# Sequence of DNA dC->dU-editing enzyme APOBEC-3G (Q9HC16 whole entry): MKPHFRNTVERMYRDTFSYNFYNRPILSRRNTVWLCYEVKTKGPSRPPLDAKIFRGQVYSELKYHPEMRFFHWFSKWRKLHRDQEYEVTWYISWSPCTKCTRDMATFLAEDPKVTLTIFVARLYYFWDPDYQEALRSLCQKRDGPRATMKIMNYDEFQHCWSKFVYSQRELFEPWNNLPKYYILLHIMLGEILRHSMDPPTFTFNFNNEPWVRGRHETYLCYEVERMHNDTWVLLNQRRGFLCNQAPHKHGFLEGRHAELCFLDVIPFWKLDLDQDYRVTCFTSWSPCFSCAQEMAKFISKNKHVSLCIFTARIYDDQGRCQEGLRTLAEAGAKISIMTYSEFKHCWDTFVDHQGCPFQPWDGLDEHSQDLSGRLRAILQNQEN
# INS1 = test: INS-1E survival protection against cytokine death – cell-based, luminescence, retest, dose response (AID 449756); format: functional; conditions: Rattus norvegicus;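 further: cell death triggered by IL-1 beta plus TNF-alpha plus IFN-gamma mixture; protective hits raise ATP signal compared with cytokine alone wells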
# Cytochrome P450 2C9 = Cytochrome P450 2C9 (Homo sapiens, UniProt P11712)
# Sequence of Cytochrome P450 2C9 (P11712 whole entry): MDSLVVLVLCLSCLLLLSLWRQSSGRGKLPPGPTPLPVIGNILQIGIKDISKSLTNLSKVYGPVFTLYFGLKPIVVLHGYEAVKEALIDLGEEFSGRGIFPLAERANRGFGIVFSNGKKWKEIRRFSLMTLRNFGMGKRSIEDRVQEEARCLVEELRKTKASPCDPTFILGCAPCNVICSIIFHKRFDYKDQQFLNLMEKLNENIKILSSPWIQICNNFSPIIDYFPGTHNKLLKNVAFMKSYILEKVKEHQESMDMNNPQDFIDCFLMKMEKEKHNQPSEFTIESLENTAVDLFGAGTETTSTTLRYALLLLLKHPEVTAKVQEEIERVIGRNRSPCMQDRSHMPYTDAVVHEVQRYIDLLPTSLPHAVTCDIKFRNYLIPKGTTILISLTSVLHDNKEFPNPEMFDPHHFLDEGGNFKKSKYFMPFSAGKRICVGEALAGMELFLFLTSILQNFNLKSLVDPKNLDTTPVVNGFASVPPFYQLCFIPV
# [11] = target: Voltage-dependent T-type calcium channel subunit alpha-1H (Homo sapiens, UniProt O95180); format: functional;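 further: channel activity triggered by adding a high calcium stimulation buffer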
# Sequence of Voltage-dependent T-type calcium channel subunit alpha-1H (O95180 whole entry): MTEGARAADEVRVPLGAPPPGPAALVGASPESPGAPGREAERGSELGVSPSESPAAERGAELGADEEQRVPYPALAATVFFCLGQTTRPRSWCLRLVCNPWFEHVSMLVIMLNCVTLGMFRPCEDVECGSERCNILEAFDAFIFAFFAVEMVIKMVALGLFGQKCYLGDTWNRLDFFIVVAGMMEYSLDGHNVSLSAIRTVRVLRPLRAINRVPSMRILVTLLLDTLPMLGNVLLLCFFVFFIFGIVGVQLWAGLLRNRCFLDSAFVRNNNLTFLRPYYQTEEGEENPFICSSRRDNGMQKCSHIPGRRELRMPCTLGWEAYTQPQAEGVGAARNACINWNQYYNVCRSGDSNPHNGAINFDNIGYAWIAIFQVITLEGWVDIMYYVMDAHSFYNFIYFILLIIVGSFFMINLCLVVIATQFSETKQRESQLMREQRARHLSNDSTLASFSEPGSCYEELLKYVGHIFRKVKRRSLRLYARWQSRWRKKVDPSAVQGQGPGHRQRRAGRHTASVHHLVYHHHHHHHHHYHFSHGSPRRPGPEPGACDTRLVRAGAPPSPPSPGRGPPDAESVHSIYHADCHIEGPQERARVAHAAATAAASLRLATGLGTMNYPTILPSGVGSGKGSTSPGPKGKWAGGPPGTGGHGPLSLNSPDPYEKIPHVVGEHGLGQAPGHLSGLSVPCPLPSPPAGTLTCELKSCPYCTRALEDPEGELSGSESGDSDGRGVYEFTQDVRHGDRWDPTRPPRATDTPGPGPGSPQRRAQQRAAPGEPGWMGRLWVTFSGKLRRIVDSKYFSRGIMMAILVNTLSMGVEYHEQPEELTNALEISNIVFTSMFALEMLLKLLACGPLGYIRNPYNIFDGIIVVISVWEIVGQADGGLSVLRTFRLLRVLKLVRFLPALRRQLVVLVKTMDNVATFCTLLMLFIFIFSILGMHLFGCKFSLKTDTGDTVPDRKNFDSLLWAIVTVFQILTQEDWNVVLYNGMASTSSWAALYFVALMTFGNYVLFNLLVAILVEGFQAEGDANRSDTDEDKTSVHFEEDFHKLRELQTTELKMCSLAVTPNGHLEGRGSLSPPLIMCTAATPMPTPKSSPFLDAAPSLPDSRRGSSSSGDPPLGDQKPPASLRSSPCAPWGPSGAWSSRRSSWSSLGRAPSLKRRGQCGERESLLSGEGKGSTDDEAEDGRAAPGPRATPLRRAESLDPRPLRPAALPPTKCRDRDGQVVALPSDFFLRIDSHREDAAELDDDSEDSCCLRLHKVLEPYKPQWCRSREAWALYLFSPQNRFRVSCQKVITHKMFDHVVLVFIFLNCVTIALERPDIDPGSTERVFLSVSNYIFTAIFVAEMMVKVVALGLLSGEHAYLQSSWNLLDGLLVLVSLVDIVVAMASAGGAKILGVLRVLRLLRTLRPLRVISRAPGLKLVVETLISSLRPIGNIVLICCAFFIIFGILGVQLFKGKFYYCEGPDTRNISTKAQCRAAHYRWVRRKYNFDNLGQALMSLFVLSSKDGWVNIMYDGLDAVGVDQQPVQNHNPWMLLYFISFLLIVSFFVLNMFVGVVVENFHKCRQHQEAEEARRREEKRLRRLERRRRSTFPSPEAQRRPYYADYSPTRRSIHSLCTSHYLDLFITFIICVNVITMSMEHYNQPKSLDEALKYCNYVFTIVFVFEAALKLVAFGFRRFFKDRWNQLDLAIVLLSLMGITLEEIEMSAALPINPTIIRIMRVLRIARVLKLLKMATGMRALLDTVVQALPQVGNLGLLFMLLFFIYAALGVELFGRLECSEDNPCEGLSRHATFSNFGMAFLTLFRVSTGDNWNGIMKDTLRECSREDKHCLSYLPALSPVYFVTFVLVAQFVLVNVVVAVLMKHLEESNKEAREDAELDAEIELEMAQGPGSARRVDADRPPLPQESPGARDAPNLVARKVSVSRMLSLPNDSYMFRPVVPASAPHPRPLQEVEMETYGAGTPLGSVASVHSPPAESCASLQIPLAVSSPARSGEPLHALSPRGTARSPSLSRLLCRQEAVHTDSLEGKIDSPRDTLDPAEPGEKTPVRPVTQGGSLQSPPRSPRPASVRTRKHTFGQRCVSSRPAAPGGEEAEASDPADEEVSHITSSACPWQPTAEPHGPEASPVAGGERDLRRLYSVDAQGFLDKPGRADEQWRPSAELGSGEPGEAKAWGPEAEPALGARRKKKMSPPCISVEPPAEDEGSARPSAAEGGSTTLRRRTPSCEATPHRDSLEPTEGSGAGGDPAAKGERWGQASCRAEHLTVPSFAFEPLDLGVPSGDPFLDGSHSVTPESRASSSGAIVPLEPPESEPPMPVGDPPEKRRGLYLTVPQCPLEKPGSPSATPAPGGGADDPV
# [12] = target: T2, Microphthalmia-associated transcription factor (Homo sapiens, UniProt O75030); test: reducers of TRPM1 reporter luminescence, concentration series – cell-based, SK-MEL-5, cherry-picked, set 3, MITF inhibitor project, dose response (AID 493073); format: functional;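 further: SK-MEL-5 melanoma cells with luciferase driven by the MITF target TRPM1 promoter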
# T2 sequence (O75030 whole entry): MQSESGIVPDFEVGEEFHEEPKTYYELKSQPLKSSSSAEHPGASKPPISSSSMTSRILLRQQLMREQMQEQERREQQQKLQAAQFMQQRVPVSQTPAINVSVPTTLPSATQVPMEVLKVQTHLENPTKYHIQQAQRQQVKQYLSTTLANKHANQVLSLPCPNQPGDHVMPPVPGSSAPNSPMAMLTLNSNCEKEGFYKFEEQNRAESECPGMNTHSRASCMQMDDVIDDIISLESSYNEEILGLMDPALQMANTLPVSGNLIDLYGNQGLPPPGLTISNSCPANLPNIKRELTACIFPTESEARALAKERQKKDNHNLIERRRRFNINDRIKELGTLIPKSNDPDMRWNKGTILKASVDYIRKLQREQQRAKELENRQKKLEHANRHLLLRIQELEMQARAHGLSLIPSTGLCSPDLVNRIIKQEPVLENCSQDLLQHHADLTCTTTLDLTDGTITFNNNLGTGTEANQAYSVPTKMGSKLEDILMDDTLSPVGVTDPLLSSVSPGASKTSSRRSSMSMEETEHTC
# [13] = target: Heat shock protein HSP 90-alpha (Homo sapiens, UniProt P07900); format: functional, organism-based
# [14] = target: T3, Heat shock factor protein 1 (Mus musculus, UniProt P38532); test: enhancement of HSF1-driven luciferase signal – cell-based, NIH3T3, luminescence, dose retest, confirmation (AID 435004); format: functional;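 further: stress induced by proteasome inhibitor MG132 added 30 min after compound; luciferase reporter driven by HSF1 response element in NIH3T3 cells; actives raise luminescence as potentiators of the MG132 stress response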
# T3 sequence (P38532 whole entry): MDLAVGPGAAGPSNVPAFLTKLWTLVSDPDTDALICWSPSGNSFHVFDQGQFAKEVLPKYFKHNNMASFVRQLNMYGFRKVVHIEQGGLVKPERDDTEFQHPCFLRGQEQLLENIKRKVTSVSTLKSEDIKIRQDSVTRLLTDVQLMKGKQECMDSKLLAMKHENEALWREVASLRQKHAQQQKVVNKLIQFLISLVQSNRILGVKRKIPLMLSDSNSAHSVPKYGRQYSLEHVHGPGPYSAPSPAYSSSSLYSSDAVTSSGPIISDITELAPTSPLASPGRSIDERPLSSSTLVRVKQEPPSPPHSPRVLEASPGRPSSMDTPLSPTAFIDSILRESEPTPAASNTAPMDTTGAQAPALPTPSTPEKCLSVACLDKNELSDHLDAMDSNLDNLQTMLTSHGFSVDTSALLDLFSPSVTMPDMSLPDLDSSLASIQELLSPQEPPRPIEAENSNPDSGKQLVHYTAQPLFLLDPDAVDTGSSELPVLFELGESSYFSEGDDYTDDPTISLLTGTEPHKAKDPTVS
# [15] = target: T4, Ubiquitin-conjugating enzyme E2 N (Homo sapiens, UniProt P61088); format: functional;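 further: Dose-response confirmation in a TR-FRET assay detecting UBC13-driven polyubiquitin chain formation, inhibition measured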
# T4 sequence (P61088 whole entry): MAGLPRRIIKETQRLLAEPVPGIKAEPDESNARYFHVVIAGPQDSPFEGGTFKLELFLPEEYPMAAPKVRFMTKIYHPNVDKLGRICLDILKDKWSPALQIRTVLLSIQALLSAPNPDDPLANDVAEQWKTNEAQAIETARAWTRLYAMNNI
# [16] = THP-1 cell cytotoxicity, dose response, cytotoxicity control for non-replicating M. tuberculosis project (AID 489025); format: functional
# cells = format: functional
# [17] = microbe, parasite or virus in culture; format: functional; conditions: Mycobacterium tuberculosis
# [18] = target: Induced myeloid leukemia cell differentiation protein Mcl-1 (Homo sapiens, UniProt Q07820); format: functional
# Sequence of Induced myeloid leukemia cell differentiation protein Mcl-1 (Q07820 whole entry): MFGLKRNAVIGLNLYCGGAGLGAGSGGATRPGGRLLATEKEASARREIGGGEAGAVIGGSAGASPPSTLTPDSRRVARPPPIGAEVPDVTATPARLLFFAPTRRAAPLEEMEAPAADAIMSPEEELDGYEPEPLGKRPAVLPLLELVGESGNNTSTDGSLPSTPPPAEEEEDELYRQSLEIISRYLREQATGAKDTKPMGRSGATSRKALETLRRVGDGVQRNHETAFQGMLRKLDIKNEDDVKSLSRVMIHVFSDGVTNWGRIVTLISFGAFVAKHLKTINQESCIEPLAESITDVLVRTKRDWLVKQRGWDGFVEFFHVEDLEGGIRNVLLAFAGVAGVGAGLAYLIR
# Leucine aminopeptidase = target: T5, Leucine aminopeptidase (Plasmodium falciparum 3D7, UniProt Q8IL11); test: P. falciparum M17LAP inhibitors, primary screen, biochemical, fluorogenic H-Leu-NHMec substrate, 1536-well (AID 1619); format: functional
# T5 sequence (Q8IL11 whole entry): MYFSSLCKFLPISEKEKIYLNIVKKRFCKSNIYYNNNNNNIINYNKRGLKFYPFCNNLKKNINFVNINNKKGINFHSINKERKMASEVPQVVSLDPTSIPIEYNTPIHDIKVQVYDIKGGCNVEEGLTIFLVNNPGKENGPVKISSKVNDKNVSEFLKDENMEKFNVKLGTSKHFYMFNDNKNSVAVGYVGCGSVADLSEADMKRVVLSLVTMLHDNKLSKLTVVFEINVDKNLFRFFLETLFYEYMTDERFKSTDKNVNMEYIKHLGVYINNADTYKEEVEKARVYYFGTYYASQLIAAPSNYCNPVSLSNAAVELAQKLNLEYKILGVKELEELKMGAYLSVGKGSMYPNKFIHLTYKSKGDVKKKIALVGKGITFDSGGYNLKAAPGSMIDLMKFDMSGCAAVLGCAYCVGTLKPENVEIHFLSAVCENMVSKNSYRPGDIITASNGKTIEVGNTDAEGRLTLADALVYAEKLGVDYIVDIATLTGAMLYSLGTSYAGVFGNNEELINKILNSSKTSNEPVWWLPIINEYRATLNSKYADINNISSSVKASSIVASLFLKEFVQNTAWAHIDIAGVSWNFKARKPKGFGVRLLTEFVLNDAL
# Cytochrome P450 3A4 = Cytochrome P450 3A4 (Homo sapiens, UniProt P08684);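 further: CYP3A4 tested as one member of a cytochrome P450 panel screen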
# Sequence of Cytochrome P450 3A4 (P08684 whole entry): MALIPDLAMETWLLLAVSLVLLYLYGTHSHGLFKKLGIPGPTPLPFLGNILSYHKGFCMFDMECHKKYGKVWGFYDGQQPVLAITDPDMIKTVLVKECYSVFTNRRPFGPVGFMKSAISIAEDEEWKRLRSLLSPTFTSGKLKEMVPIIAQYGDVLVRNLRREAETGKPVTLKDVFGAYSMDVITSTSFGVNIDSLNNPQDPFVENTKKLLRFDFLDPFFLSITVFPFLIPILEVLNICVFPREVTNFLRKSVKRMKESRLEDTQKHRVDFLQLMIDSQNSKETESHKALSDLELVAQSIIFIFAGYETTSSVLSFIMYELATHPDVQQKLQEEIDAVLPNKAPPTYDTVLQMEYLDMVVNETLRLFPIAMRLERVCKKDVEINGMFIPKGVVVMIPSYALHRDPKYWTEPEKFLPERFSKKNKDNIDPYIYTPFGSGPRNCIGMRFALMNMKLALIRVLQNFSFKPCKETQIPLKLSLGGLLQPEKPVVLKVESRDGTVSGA
# Cytochrome P450 2C19 = Cytochrome P450 2C19 (Homo sapiens, UniProt P33261); test: Cytochrome panel assay with activity outcomes. Panel member name: p450-cyp2c19 Compounds with AC50 equal or less than 10 uM are considered active; format: functional; conditions: read-out: AC50
# HEK293 = test: EBV LMP1 TES2 canonical NF-kB signalling blockers – cell-based, HEK293, luciferase, cherry-pick, dose response (AID 588343); format: functional; conditions: Homo sapiens
# Paired box protein Pax-8 = Paired box protein Pax-8 (Homo sapiens, UniProt Q06710); test: PAX8 transcriptional activity inhibition in RMG-I – RMG-I cells, luciferase, cherry-pick, dose response (AID 687027); format: functional, cell-based;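 further: luciferase reporter driven by Pax8 target thyroperoxidase promoter measured by SteadyGlo luminescence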
# Sequence of Paired box protein Pax-8 (Q06710 whole entry): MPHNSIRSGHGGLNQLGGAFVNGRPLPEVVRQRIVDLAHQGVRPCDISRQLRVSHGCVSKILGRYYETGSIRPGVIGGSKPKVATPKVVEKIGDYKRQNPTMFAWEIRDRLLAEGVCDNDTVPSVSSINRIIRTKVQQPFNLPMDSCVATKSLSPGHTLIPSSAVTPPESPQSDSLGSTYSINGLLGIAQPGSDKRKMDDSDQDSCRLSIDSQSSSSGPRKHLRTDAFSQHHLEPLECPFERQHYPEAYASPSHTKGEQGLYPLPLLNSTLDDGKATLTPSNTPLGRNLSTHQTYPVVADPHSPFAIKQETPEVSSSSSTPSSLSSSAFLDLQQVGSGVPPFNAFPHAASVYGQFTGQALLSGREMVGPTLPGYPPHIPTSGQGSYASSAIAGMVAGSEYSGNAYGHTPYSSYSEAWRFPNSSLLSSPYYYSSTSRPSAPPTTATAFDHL
compound,measurement,setting,value
COC(=O)c1[nH]c2ccc(Br)cc2c1NC(=O)CN1CCN(C2CCCCC2)CC1,IC50,[1],22.4 µM (inactive)
same,EC50,[2],> 20 µM (not active)
same,EC50,[3],12.2 µM (active)
same,EC50,[4],> 20 µM (not active)
same,EC50,[5],7.79 µM (active)
same,EC50,[6],12.9 µM (active)
O=C(Nn1c(C2CCC2)nc2ccccc2c1=O)C1CCC1,IC50,Aminopeptidase N,48.2 µM (active)
COC(=O)c1[nH]c2ccc(Cl)cc2c1NC(=O)CN1CCc2cc(OC)c(OC)cc2C1,EC50,[7],> 112 µM (not active)
same,EC50,[8],> 112 µM (not active)
same,IC50,[9],3.18 µM (active)
same,IC50,[10],7.77 µM (active)
CCN(c1ccccc1)S(=O)(=O)c1ccc(C(=O)NC2CCN(Cc3ccccc3)CC2)cc1,IC50,[1],> 80 µM (inactive)
same,AC50,INS1,2.31 µM (active)
Cn1nc(C(F)(F)F)c(/C=N/OC(=O)c2ccccc2)c1Cl,AC50,Cytochrome P450 2C9,inactive
CCn1nc(C(=O)Nc2cccc3ccccc23)c(Cl)c1Cl,EC50,[11],10.5 µM (active)
COc1ccccc1CC(=N)NOC(=O)c1ccc(C)c([N+](=O)[O-])c1,AC50,Cytochrome P450 2C9,inconclusive
O=C(C#Cc1ccccc1)c1cccc([N+](=O)[O-])c1,AC50,[12],3.62 µM (active)
same,AC50,[13],0.75 µM (active)
same,EC50,[14],> 260 µM (inconclusive)
COC(=O)C1=C(C)N(Cc2ccccc2)C(NCC(C)C)=N[C@H]1c1cccc(C(F)(F)F)c1,AC50,[12],15 µM (active)
same,IC50,[9],2.88 µM (active)
same,IC50,[15],> 20 µM (inactive)
same,IC50,[10],4.22 µM (active)
Cc1ccc(CC(=O)N2CCN(c3ccc([N+](=O)[O-])cc3)CC2)cc1,CC50,[16],> 40 µM (active)
CN1C(=O)/C(=C/c2cccc(Cl)c2)Sc2ccc(C(=O)N3CCCC3)cc21,IC50,cells,34.4 µM (active)
same,CC50,[17],25.5 µM (active)
same,CC50,[16],9.59 µM (active)
Cc1ccc2[nH]c(C)c(/C=C3/C(=N)N4C(=NC3=O)SN=C4S(=O)(=O)C(C)C)c2c1,IC50,[18],11.8 µM (not active)
same,IC50,Aminopeptidase N,9.85 µM (active)
same,IC50,Leucine aminopeptidase,7.16 µM (active)
COc1ccccc1C1=NOC(COC(=O)c2ccc3ccccc3n2)C1 (stereo unspecified),AC50,Cytochrome P450 2C9,inconclusive
COc1ccc(C(=O)NCc2cn3ccccc3n2)cc1,AC50,Cytochrome P450 2C9,inconclusive
same,AC50,Cytochrome P450 3A4,28.2 µM (inconclusive)
same,AC50,Cytochrome P450 2C19,20 µM (inconclusive)
COC(=O)[C@@]1(Cc2ccccc2)[C@H]2C(=O)N(Cc3ccccc3)C(=O)[C@H]2[C@H]2CN=C(SCc3ccc(Cl)cc3)N21,AC50,HEK293,6.5 µM (active)
Cc1cccc(C2=NCC(=O)N(CC(=O)NCc3ccco3)c3sc4c(c32)CCCC4)c1,EC50,[11],4.37 µM (active)
CC(c1nc2ccccc2o1)N1C(=O)c2ccccc2C1=O (stereo unspecified),IC50,Aminopeptidase N,79.5 µM (active)
COc1cccc(CNC(=O)C2CCN(Cc3cnn(-c4ccccc4)c3-n3cccc3)CC2)c1,EC50,[11],9.81 µM (active)
CC/N=c1\sc2ccccc2n1CC(O)COc1ccccc1 (stereo unspecified),EC50,[11],29.1 µM (active)
Nc1cc(N)nc(SCC(=O)Nc2ccc(Br)cc2Cl)n1,IC50,[9],4.42 µM (active)
same,IC50,[10],6.06 µM (active)
Cc1ccc(-n2nnnc2Sc2nc([N+](=O)[O-])nn2C)c(C)c1,AC50,[12],39.6 µM (active)
CCN(CC)C(=O)C(=O)N/N=C/c1cccc(Br)c1,AC50,Cytochrome P450 2C9,inconclusive
COc1cc(C2C(C#N)=C(N)Oc3cc4c(cc32)OCO4)cc(OC)c1OC (stereo unspecified),IC50,[1],> 80 µM (inactive)
same,AC50,Paired box protein Pax-8,0.553 µM (active)
same,AC50,[12],0.365 µM (active)

# Source: ChEMBL document CHEMBL1201862, “PubChem BioAssay data set” (2004)
